From US4847247A, “Penicillin derivatives as anti-inflammatory and antidegenerative agents” (Merck & Co., Inc., priority 1986, dated 1989)

molecular target: T1, Human Polymorphonuclear Leukocyte Elastase (Homo sapiens, UniProt P08246); assay: Inhibition of human polymorphonuclear leukocyte (granulocyte) elastase via hydrolysis of Boc-AAPAN; format: biochemical; details: not given
T1 construct: Crude extract of human polymorphonuclear leukocytes (PMN) containing elastase activity; endogenous in cells; host or cells: human polymorphonuclear leukocytes (crude extract)
T1 sequence (P08246 30-247 limits assumed): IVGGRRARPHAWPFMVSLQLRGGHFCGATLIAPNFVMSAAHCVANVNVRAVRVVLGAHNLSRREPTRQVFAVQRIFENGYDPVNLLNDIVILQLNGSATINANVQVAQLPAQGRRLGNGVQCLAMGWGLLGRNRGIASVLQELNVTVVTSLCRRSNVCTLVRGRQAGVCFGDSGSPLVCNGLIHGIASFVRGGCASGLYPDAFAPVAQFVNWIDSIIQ
Experimental: Enzyme assay for the Inhibition of Human Polymorphonuclear Leukocyte Elastase Via Hydrolysis of N-t-Boc-alanyl-alanyl-prolylalanine-p-nitroanilide
0.05M TES (N-tris[hydroxymethyl]methyl-2-amino-ethanesulfonic acid) buffer, pH 7.5.
0.2 mM N-t-Boc-alanyl-alanyl-prolyl-alanine-p-nitroanilide (Boc-AAPAN).
To prepare substrate, the solid (m.w. 550) was first dissolved in 10.0 ml DMSO. Buffer at pH 7.5 was then added to a final volume of 100 ml.
Crude extract of human polymorphonuclear leukocytes (PMN) containing elastase activity.
Inhibitors (cephalosporin sulfoxide esters) to be tested dissolved in DMSO just before use.
To 1.0 ml of 0.2 mM Boc-AAPAN in a cuvette, 0.01-0.1 ml of DMSO with or without inhibitor was added. After mixing, a measurement was taken at 410 mμ to detect any spontaneous hydrolysis due to of test compound. 0.05 Milliliters of PMN extract was then added and the αOD/minute at 410 mμ was measured and recorded. Beckman model 35 spectrophotometer was used.
The elastase activity in the crude PMN extract may vary from one preparation to another. A control of each new batch is run, and the volume added in the assay procedure is adjusted according to activity.

Structure (SMILES) | IC50
CC(=O)O[C@H]1C(=O)N2[C@@H](C(=O)OCc3ccccc3)C(C)(C)S(=O)(=O)[C@H]12 [CH3 COO / 2 / OBZ, Benzyl 6α-acetoxypenicillanate-1,1-dioxide] | 0.524 µM
CCO[C@H]1C(=O)N2[C@@H](C(=O)OCc3ccc(C(=O)O)cc3)C(C)(C)S(=O)(=O)[C@H]12 [6α-OC2 H5 / 2 / OBZ(p-COOH)] | 1.46 µM

same assay, conditions: crude human PMN extract, 0.2 mM Boc-AAPAN, pH 7.5, 410 mμ, 2 minutes after zero time; read-out: IC50 (dosage for 50% inhibition of the enzyme activity) (converted)

Structure (SMILES) | IC50
CN(Cc1ccc(C(=O)O)cc1)C(=O)[C@@H]1N2C(=O)[C@H](NC(=O)C(F)(F)F)[C@H]2S(=O)(=O)C1(C)C [6α-CF3 (CO)NH / 2 / N(CH3)BZ(p-COOH)] | 1.42 µM
COc1ccc(CNC(=O)[C@@H]2N3C(=O)[C@@H](NC(=O)C(F)(F)F)[C@H]3S(=O)(=O)C2(C)C)cc1 [6β-CF3 (CO)NH / 2 / NHBZ(p-OCH3)] | 0.647 µM
CO[C@]1(NC(=O)C(F)(F)F)C(=O)N2[C@@H](C(=O)OCc3ccccc3)C(C)(C)S(=O)(=O)[C@@H]21 [α-CF3 CONH / β-CH3 O / 2 / OBZ] | 1.72 µM
Cc1ccc(S(=O)(=O)N[C@H]2C(=O)N3[C@@H](C(=O)OCc4ccccc4)C(C)(C)S(=O)(=O)[C@H]23)cc1 [6α-(TS)NH / 2 / OBZ] | 0.406 µM
CC1(C)[C@H](C(=O)OCc2ccc(C(=O)O)cc2)N2C(=O)[C@H](NC(=O)C(F)(F)F)[C@H]2[S+]1[O-] (stereo partly drawn) [6α-CF3 (CO)NH / 1 / OBZ(p-COOH)] | 1.08 µM
CC1(C)S[C@@H]2[C@H](NC(=O)C(F)(F)F)C(=O)N2[C@H]1C(=O)OCc1ccccc1 [6β-CF3 CONH / 0 / OBZ, benzyl 6β-trifluoroacetamidopenicillanate] | 29.8 µM
CC1(C)[C@H](C(=O)OCc2ccc(C(=O)O)cc2)N2C(=O)[C@H](NC(=O)C(F)(F)F)[C@H]2S1(=O)=O [6α-CF3 (CO)NH / 2 / OBZ(p-COOH)] | 0.0836 µM
CC1(C)S[C@@H]2[C@H](COC(=O)NCc3ccccc3)C(=O)N2[C@H]1C(=O)OCc1ccccc1 [6β-CH2 O(CO)NH(BZ) / 0 / OBZ] | 33 µM
CC(=O)O[C@H]1C(=O)N2[C@@H]1[S+]([O-])C(C)(C)[C@@H]2C(=O)OCc1ccccc1 (stereo partly shown) [CH3 COO / 1 / OBZ] | 13.7 µM
Cc1ccc(S(=O)(=O)C[C@H]2C(=O)N3[C@@H](C(=O)OCc4ccccc4)C(C)(C)S(=O)(=O)[C@H]23)cc1 [6α-(TS)CH2 / 2 / OBZ (2nd)] | 4.07 µM
CN(C(=O)C(F)(F)F)[C@H]1C(=O)N2[C@@H]1[S+]([O-])C(C)(C)[C@@H]2C(=O)OCc1ccccc1 (stereo partly drawn) [6α-CF3 CON(CH3) / 1 / OBZ] | 6.94 µM
CC1(C)S[C@@H]2[C@@H](NC(=O)C(F)(F)F)C(=O)N2[C@H]1C(=O)OCc1ccccc1 [6α-CF3 CONH / 0 / OBZ, Benzyl 6α-trifluoroacetamidopenicillanate] | 9.94 µM
CC(C)(C)OC(=O)[C@@H]1CCCN1C(=O)[C@@H]1N2C(=O)[C@H](NC(=O)C(F)(F)F)[C@H]2S(=O)(=O)C1(C)C [6α-CF3 (CO)NH / 2 / drawing 31] | 40.2 µM

same assay, conditions: read-out: IC50 (dosage for 50% inhibition of the enzyme activity); crude human PMN extract, 0.2 mM Boc-AAPAN, pH 7.5, 410 mμ, 2 minutes after zero time

Structure (SMILES) | IC50
CC1(C)S[C@@H]2C(OC(=O)Cc3ccccc3)C(=O)N2[C@H]1C(=O)OCc1ccccc1 (stereo partly shown) [(BZ)COO / 0 / OBZ] | 47 µM
